ChEMBL document CHEMBL1649413, “Structure-activity relationship of 4(5)-aryl-2-amino-1H-imidazoles, N1-substituted 2-aminoimidazoles and imidazo[1,2-a]pyrimidinium salts as inhibitors of biofilm formation by Salmonella typhimurium and Pseudomonas aeruginosa” (J Med Chem, 2011)
pIC50: −log10 of the molar value. Calls of active or inactive are those of the source. The calls are words filed in the database; no cut-off is given here.

What was measured:
Salmonella typhimurium [1] = assay: Antimicrobial activity against Salmonella Typhimurium ATCC 14028 assessed as inhibition of planktonic growth at 400 uM at 25 degC after 24 hrs; type: functional, organism-based; details: Salmonella enterica subsp. enterica serovar Typhimurium
Salmonella typhimurium [2] = assay: Antibiofilm activity in Salmonella Typhimurium ATCC 14028 assessed as inhibition of biofilm formation at 25 degC after 24 hrs; type: functional, organism-based, Salmonella enterica subsp. enterica serovar Typhimurium; details: Salmonella enterica, ATCC 14028, 24 h
Salmonella typhimurium [3] = assay: Antimicrobial activity against Salmonella Typhimurium ATCC 14028 assessed as inhibition of planktonic growth at 40 uM at 25 degC after 24 hrs; type: functional, organism-based; details: Salmonella enterica subsp. enterica serovar Typhimurium
Salmonella typhimurium [4] = assay: Antimicrobial activity against Salmonella Typhimurium ATCC 14028 assessed as inhibition of planktonic growth at 25 uM at 25 degC after 24 hrs; type: functional, organism-based; details: Salmonella enterica subsp. enterica serovar Typhimurium
Salmonella typhimurium [5] = assay: Antimicrobial activity against Salmonella Typhimurium ATCC 14028 assessed as inhibition of planktonic growth at 10 uM at 25 degC after 24 hrs; type: functional, organism-based; details: Salmonella enterica subsp. enterica serovar Typhimurium
Salmonella typhimurium [6] = assay: Antibiofilm activity in Salmonella Typhimurium ATCC 14028 assessed as inhibition of biofilm formation at 37 degC after 24 hrs; type: functional, organism-based, Salmonella enterica subsp. enterica serovar Typhimurium; details: Salmonella enterica, ATCC 14028, 24 h
Salmonella typhimurium [7] = assay: Antimicrobial activity against Salmonella Typhimurium ATCC 14028 assessed as inhibition of planktonic growth at 400 uM at 37 degC after 24 hrs; type: functional, organism-based; details: Salmonella enterica subsp. enterica serovar Typhimurium
Pseudomonas aeruginosa [8] = assay: Antibiofilm activity in Pseudomonas aeruginosa assessed as inhibition of biofilm formation at 25 degC after 24 hrs; type: functional, organism-based
Pseudomonas aeruginosa [9] = assay: Antimicrobial activity against Pseudomonas aeruginosa assessed as inhibition of planktonic growth at 100 uM at 25 degC after 24 hrs; type: functional, organism-based
Pseudomonas aeruginosa [10] = assay: Antimicrobial activity against Pseudomonas aeruginosa assessed as inhibition of planktonic growth at 50 uM at 25 degC after 24 hrs; type: functional, organism-based
Pseudomonas aeruginosa [11] = assay: Antibiofilm activity in Pseudomonas aeruginosa assessed as inhibition of biofilm formation at 37 degC after 24 hrs; type: functional, organism-based
Pseudomonas aeruginosa [12] = assay: Antimicrobial activity against Pseudomonas aeruginosa assessed as inhibition of planktonic growth at 100 uM at 37 degC after 24 hrs; type: functional, organism-based
Pseudomonas aeruginosa [13] = assay: Antimicrobial activity against Pseudomonas aeruginosa assessed as inhibition of planktonic growth at 40 uM at 37 degC after 24 hrs; type: functional, organism-based
Pseudomonas aeruginosa [14] = assay: Antimicrobial activity against Pseudomonas aeruginosa assessed as inhibition of planktonic growth at 20 uM at 37 degC after 24 hrs; type: functional, organism-based
Salmonella typhimurium [15] = assay: Antimicrobial activity against Salmonella Typhimurium ATCC 14028 assessed as inhibition of planktonic growth at 150 uM at 25 degC after 24 hrs; type: functional, organism-based; details: Salmonella enterica subsp. enterica serovar Typhimurium
Salmonella typhimurium [16] = assay: Antimicrobial activity against Salmonella Typhimurium ATCC 14028 assessed as inhibition of planktonic growth at 4 uM at 25 degC after 24 hrs; type: functional, organism-based; details: Salmonella enterica subsp. enterica serovar Typhimurium
Salmonella typhimurium [17] = assay: Antimicrobial activity against Salmonella Typhimurium ATCC 14028 assessed as inhibition of planktonic growth at 250 uM at 37 degC after 24 hrs; type: functional, organism-based; details: Salmonella enterica subsp. enterica serovar Typhimurium
Salmonella typhimurium [18] = assay: Antimicrobial activity against Salmonella Typhimurium ATCC 14028 assessed as inhibition of planktonic growth at 150 uM at 37 degC after 24 hrs; type: functional, organism-based; details: Salmonella enterica subsp. enterica serovar Typhimurium
Salmonella typhimurium [19] = assay: Antimicrobial activity against Salmonella Typhimurium ATCC 14028 assessed as inhibition of planktonic growth at 100 uM at 37 degC after 24 hrs; type: functional, organism-based; details: Salmonella enterica subsp. enterica serovar Typhimurium
Salmonella typhimurium [20] = assay: Antimicrobial activity against Salmonella Typhimurium ATCC 14028 assessed as inhibition of planktonic growth at 20 uM at 25 degC after 24 hrs; type: functional, organism-based; details: Salmonella enterica subsp. enterica serovar Typhimurium
Pseudomonas aeruginosa [21] = assay: Antimicrobial activity against Pseudomonas aeruginosa assessed as inhibition of planktonic growth at 40 uM at 25 degC after 24 hrs; type: functional, organism-based
Pseudomonas aeruginosa [22] = assay: Antimicrobial activity against Pseudomonas aeruginosa assessed as inhibition of planktonic growth at 10 uM at 25 degC after 24 hrs; type: functional, organism-based
Pseudomonas aeruginosa [23] = assay: Antimicrobial activity against Pseudomonas aeruginosa assessed as inhibition of planktonic growth at 800 uM at 37 degC after 24 hrs; type: functional, organism-based
Pseudomonas aeruginosa [24] = assay: Antimicrobial activity against Pseudomonas aeruginosa assessed as inhibition of planktonic growth at 400 uM at 37 degC after 24 hrs; type: functional, organism-based
Salmonella typhimurium [25] = assay: Antimicrobial activity against Salmonella Typhimurium ATCC 14028 assessed as inhibition of planktonic growth at 50 uM at 37 degC after 24 hrs; type: functional, organism-based; details: Salmonella enterica subsp. enterica serovar Typhimurium
Salmonella typhimurium [26] = assay: Antimicrobial activity against Salmonella Typhimurium ATCC 14028 assessed as inhibition of planktonic growth at 25 uM at 37 degC after 24 hrs; type: functional, organism-based; details: Salmonella enterica subsp. enterica serovar Typhimurium
Pseudomonas aeruginosa [27] = assay: Antimicrobial activity against Pseudomonas aeruginosa assessed as inhibition of planktonic growth at 5 uM at 25 degC after 24 hrs; type: functional, organism-based

Row | SMILES | inhibition (Salmonella typhimurium [1]) | pIC50 (Salmonella typhimurium [2]) | inhibition (Salmonella typhimurium [3]) | inhibition (Salmonella typhimurium [5]) | pIC50 (Salmonella typhimurium [6]) | inhibition (Salmonella typhimurium [7]) | pIC50 (Pseudomonas aeruginosa [8]) | inhibition (Pseudomonas aeruginosa [9]) | pIC50 (Pseudomonas aeruginosa [11]) | inhibition (Pseudomonas aeruginosa [12]) | inhibition (Pseudomonas aeruginosa [13]) | inhibition (Pseudomonas aeruginosa [14]) | inhibition (Salmonella typhimurium [16]) | inhibition (Salmonella typhimurium [18]) | inhibition (Salmonella typhimurium [19]) | inhibition (Pseudomonas aeruginosa [21]) | inhibition (Pseudomonas aeruginosa [22]) | also measured
1 | Nc1ncc(-c2ccc([N+](=O)[O-])cc2)[nH]1 | Active | 4.75 | Active | inactive | 3.40 | Active | 4.46 | Active | 4.03 | inactive | inactive | inactive |  |  |  |  |  | inhibition (Salmonella typhimurium [4]): inactive; inhibition (Pseudomonas aeruginosa [10]): inactive
2 | Nc1ncc(-c2ccccc2)[nH]1 | Active | 3.89 | inactive |  | 3.83 | inactive | 4.14 | inactive | 4.64 | inactive | inactive | inactive | inactive | inactive | inactive |  |  | inhibition (Salmonella typhimurium [15]): inactive; inhibition (Salmonella typhimurium [17]): inactive
3 | Nc1nc(-c2ccc(-c3ccccc3)cc2)c[nH]1 |  | 4.76 | Active | inactive | 3.46 | Active | 5.07 |  | 3.44 |  |  |  |  |  |  | inactive | inactive | inhibition (Salmonella typhimurium [20]): Active; inhibition (Pseudomonas aeruginosa [23]): Active; inhibition (Pseudomonas aeruginosa [24]): Active
4 | Nc1ncc(-c2ccc(Br)cc2)[nH]1 | Active | 4.32 | inactive |  | 4.27 |  | 5.49 |  | 4.29 | Active | inactive | inactive | inactive | inactive | inactive | Active | inactive | inhibition (Salmonella typhimurium [25]): inactive; inhibition (Salmonella typhimurium [26]): inactive; inhibition (Pseudomonas aeruginosa [27]): inactive
